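Results reflect a 48-hour exposure of cells in 96-well plates to compound at five concentrations. Here, GI50 denotes the concentration required for 50% inhibition of growth.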 The source made the active and inactive calls. No stated cut-off is given here; in the data, active = GI50 up to about 1.1 µM and inactive = higher.
Assays:
Experiment in all cases: inhibition of tumour cell growth, NCI panel, 48 h
SK-MEL-2 = tested on: SK-MEL-2
KM12 = tested on: KM12
HL-60 = tested on: HL-60
Malme-3M = tested on: Malme-3M
A549 = tested on: A549
SN12C = tested on: SN12C
ACHN = tested on: ACHN
DLD-1 = tested on: DLD-1
SK-MEL-5 = tested on: SK-MEL-5
NCI-H460 = tested on: NCI-H460
EKVX = tested on: EKVX
RXF 631 = tested on: RXF 631
SR = tested on: SR
KM-20L2 = tested on: KM-20L2
OVCAR-3 = tested on: OVCAR-3
CAKI-1 = tested on: CAKI-1
LXFL 529 = tested on: LXFL 529
HOP-92 = tested on: HOP-92
SF-268 = tested on: SF-268
XF498 = tested on: XF498
NCI-H23 = tested on: NCI-H23
SW-620 = tested on: SW-620
LOX IMVI = tested on: LOX IMVI
OVCAR-4 = tested on: OVCAR-4
TK-10 = tested on: TK-10
DMS-273 = tested on: DMS-273
NCI-H226 = tested on: NCI-H226
SF-539 = tested on: SF-539
SNB-19 = tested on: SNB-19
M14 = tested on: M14
HT-29 = tested on: HT-29
UACC-257 = tested on: UACC-257
SK-MEL-28 = tested on: SK-MEL-28
IGROV-1 = tested on: IGROV-1
SNB-75 = tested on: SNB-75
K562 = tested on: K562
OVCAR-5 = tested on: OVCAR-5
HCT-15 = tested on: HCT-15
MOLT-4 = tested on: MOLT-4
U-251 = tested on: U-251
A498 = tested on: A498
UACC-62 = tested on: UACC-62
M19-MEL = tested on: M19-MEL
HCC 2998 = tested on: HCC 2998
RPMI-8226 = tested on: RPMI-8226
SK-OV-3 = tested on: SK-OV-3
UO-31 = tested on: UO-31
COLO 205 = tested on: COLO 205
CCRF-CEM = tested on: CCRF-CEM
HOP-18 = tested on: HOP-18
RXF 393 = tested on: RXF 393
OVCAR-8 = tested on: OVCAR-8
NCI-H522 = tested on: NCI-H522
SNB-78 = tested on: SNB-78
786-0 = tested on: 786-0
DMS-114 = tested on: DMS-114
HCT-116 = tested on: HCT-116
SF-295 = tested on: SF-295

Compound: CCOc1ccc2nc(NC(=O)c3c/c(=N\NC(=O)C[N+](C)(C)C)c4ccc(O)cc4o3)sc2c1
- GI50 (SK-MEL-2): 2.43 µM (inactive)
- GI50 (KM12): 5.28 µM (inactive)
- GI50 (HL-60): 1.59 µM (inactive)
- GI50 (Malme-3M): 1.28 µM (inactive)
- GI50 (A549): 2.76 µM (inactive)
- GI50 (SN12C): 3.55 µM (inactive)
- GI50 (ACHN): 4.52 µM (inactive)
- GI50 (DLD-1): 2.52 µM (inactive)
- GI50 (SK-MEL-5): 0.555 µM (active)
- GI50 (NCI-H460): 3.04 µM (inactive)
- GI50 (EKVX): 4.44 µM (inactive)
- GI50 (RXF 631): 6.03 µM (inactive)
- GI50 (SR): 3.05 µM (inactive)
- GI50 (KM-20L2): 3.21 µM (inactive)
- GI50 (OVCAR-3): 0.13 µM (active)
- GI50 (CAKI-1): 6.04 µM (inactive)
- GI50 (LXFL 529): 2.02 µM (inactive)
- GI50 (HOP-92): 1.72 µM (inactive)
- GI50 (SF-268): 3.29 µM (inactive)
- GI50 (XF498): 2.83 µM (inactive)
- GI50 (NCI-H23): 1.59 µM (inactive)
- GI50 (SW-620): 2.19 µM (inactive)
- GI50 (LOX IMVI): 1.14 µM (inactive)
- GI50 (OVCAR-4): 1.74 µM (inactive)
- GI50 (TK-10): 21.7 µM (inactive)
- GI50 (DMS-273): 3.34 µM (inactive)
- GI50 (NCI-H226): 3.25 µM (inactive)
- GI50 (SF-539): 3.85 µM (inactive)
- GI50 (SNB-19): 5.65 µM (inactive)
- GI50 (M14): 1.63 µM (inactive)
- GI50 (HT-29): 3.56 µM (inactive)
- GI50 (UACC-257): 1.49 µM (inactive)
- GI50 (SK-MEL-28): 5.75 µM (inactive)
- GI50 (IGROV-1): 2.65 µM (inactive)
- GI50 (SNB-75): 1.52 µM (inactive)
- GI50 (K562): 1.92 µM (inactive)
- GI50 (OVCAR-5): 3.37 µM (inactive)
- GI50 (HCT-15): 5.93 µM
- GI50 (MOLT-4): 1.72 µM (inactive)
- GI50 (U-251): 2.89 µM (inactive)
- GI50 (A498): 14.6 µM (inactive)
- GI50 (UACC-62): 1.65 µM (inactive)
- GI50 (M19-MEL): 0.294 µM (active)
- GI50 (HCC 2998): 7.53 µM (inactive)
- GI50 (RPMI-8226): 2.15 µM (inactive)
- GI50 (SK-OV-3): 11.3 µM (inactive)
- GI50 (UO-31): 11.8 µM (inactive)
- GI50 (COLO 205): 1.63 µM (inactive)
- GI50 (CCRF-CEM): 1.6 µM (inactive)
- GI50 (HOP-18): 2.06 µM (inactive)
- GI50 (RXF 393): 5.87 µM (inactive)
- GI50 (OVCAR-8): 2.14 µM (inactive)
- GI50 (NCI-H522): 1.95 µM (inactive)
- GI50 (SNB-78): 5 µM (inactive)
- GI50 (786-0): 3.62 µM (inactive)
- GI50 (DMS-114): 1.91 µM (inactive)
- GI50 (HCT-116): 3.4 µM (inactive)
- GI50 (SF-295): 3.38 µM (inactive)

From ChEMBL document CHEMBL1201862, “PubChem BioAssay data set” (2004)
